One compound from ChEMBL document CHEMBL1128304, “The synthesis of N-hydroxy-N'-phenyloctanediamide and its inhibitory effect on proliferation of AXC rat prostate cancer cells” (1995) can be followed below.

Experiment [1] has as its system Erythroleukemia cell line. The experiment is described as follows: Percent of murine erythroleukemia cells that became benzidine reactive after administration (2.5 uM). It is filed as functional, Mus musculus.
The subject of a further experiment is HL-60. The experiment is described as follows: Percent of HL-60 cells (from human acute promyelocytic leukemia) to develop the ability to reduce nitroblue tetrazolium after administration (1 uM). It is filed as functional. Further details: scale not given: the % may be the effect or the level left.
A further experiment deals with T/5. As to the kind of experiment: Tested for morphological alterations in T/5 cells after administration along with DMSO (0.1%). Particulars: Rattus norvegicus. The format is functional, cell-based.

As to `O=C(CCCCCCC(=O)Nc1ccccc1)NO` [VORINOSTAT], the results for the Activity (in experiment [1]; in the experiment with HL-60; in the experiment on T/5) were 70%, 21% and “No morphological alterations observed”, respectively.
